Each structure is given as a SMILES string.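 48-hour exposure; five concentrations; linearly interpolated endpoints. GI50 marks 50% less growth. TGI marks complete inhibition of growth.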 A value given as a limit tells only on which side of the number the result lay.

Among the test systems are OVCAR-3 ovarian; HCT-15 colon; HL-60(TB) leukemia; T-47D breast; COLO 205 colon; MALME-3M melanoma; KM12 colon; OVCAR-8 ovarian.
Common to all, as to assay: inhibition of tumour cell growth, NCI panel, 48 h

As to `Clc1ccc2c(NCCNc3nc(N4CCOCC4)nc4ccccc34)ccnc2c1`, the GI50 was 1.84 µM in the experiment on OVCAR-3 ovarian; 2.49 µM in the experiment with HCT-15 colon; 1.09 µM in the experiment with HL-60(TB) leukemia; 2.82 µM in the experiment on T-47D breast; 2.02 µM in the experiment on COLO 205 colon; 1.97 µM in the experiment on MALME-3M melanoma. The GI50 in the experiment on KM12 colon is 2.66 µM; in the experiment with OVCAR-8 ovarian, 2.18 µM. In addition, the TGI in the experiment on OVCAR-3 ovarian came to 3.53 µM; with HCT-15 colon it was 8.47 µM; with HL-60(TB) leukemia it was 3.12 µM; in the experiment with T-47D breast, 8.98 µM; in the experiment on COLO 205 colon it was 4.46 µM; in the experiment with MALME-3M melanoma, 3.89 µM. The TGI amounted to 8.16 µM with KM12 colon and 5.24 µM in the experiment on OVCAR-8 ovarian.

For the molecule `CN1CCCCC1CCN1c2ccccc2Sc2ccc(Br)cc21` (stereo not drawn), the GI50 was 3.36 µM with OVCAR-3 ovarian; 3.17 µM with HCT-15 colon; 2.06 µM in the experiment on HL-60(TB) leukemia; 3.61 µM in the experiment with T-47D breast; 2.04 µM in the experiment on COLO 205 colon; 2.08 µM with MALME-3M melanoma. The values for the GI50 with KM12 colon and in the experiment with OVCAR-8 ovarian were 2.22 µM and 2.11 µM, respectively. Further, the TGI in the experiment with OVCAR-3 ovarian was 11.7 µM; in the experiment on HCT-15 colon, 10.2 µM; in the experiment with HL-60(TB) leukemia, 4.65 µM; with T-47D breast, 14.4 µM; with COLO 205 colon, 4.2 µM; with MALME-3M melanoma, 4 µM. Moreover, the results for the TGI in the experiment with KM12 colon and in the experiment on OVCAR-8 ovarian were 4.78 µM and 4.47 µM, respectively.

Turning to `CCCCNc1ncnc2c1cnn2-c1ccccc1`, the GI50 with OVCAR-3 ovarian is 1.46 µM; with HCT-15 colon it was 0.947 µM; in the experiment on HL-60(TB) leukemia, 2.35 µM; in the experiment with T-47D breast it was 3.71 µM; in the experiment with COLO 205 colon, 1.15 µM; in the experiment with MALME-3M melanoma it was 6.18 µM. Moreover, the GI50 in the experiment with KM12 colon was 0.474 µM; in the experiment on OVCAR-8 ovarian, 4.62 µM. The TGI was 5.16 µM in the experiment on OVCAR-3 ovarian; more than 50.1 µM with HCT-15 colon; 53 µM in the experiment with HL-60(TB) leukemia; 52.8 µM in the experiment on T-47D breast; 11.7 µM with COLO 205 colon; more than 72.5 µM in the experiment on MALME-3M melanoma. For the same molecule, the TGI was 27.2 µM with KM12 colon and more than 88.1 µM with OVCAR-8 ovarian.

On to `COc1cc(C(=O)c2cnc(-c3c[nH]c4cccc(C)c34)[nH]2)cc(OC)c1OC`, for which the GI50 in the experiment on OVCAR-3 ovarian was 0.00332 µM; in the experiment with HCT-15 colon, 0.00659 µM; in the experiment on COLO 205 colon, 0.00513 µM; in the experiment with MALME-3M melanoma it was 11.4 µM; with KM12 colon, 0.00482 µM; in the experiment on OVCAR-8 ovarian, 0.0078 µM. Besides, the TGI in the experiment on OVCAR-3 ovarian was 0.0125 µM; in the experiment with HCT-15 colon, more than 100 µM; with COLO 205 colon it was 0.0412 µM; in the experiment on MALME-3M melanoma it was more than 100 µM; in the experiment on KM12 colon, more than 100 µM; in the experiment on OVCAR-8 ovarian, 43.2 µM.

Turning to `COC(=O)c1c(C)nc(C)c2c1C(=O)C(Br)=C(NCc1ccccc1)C2=O`, the GI50 in the experiment on OVCAR-3 ovarian was 2.27 µM; in the experiment with HCT-15 colon, 2.76 µM; in the experiment with T-47D breast it was 2.26 µM; in the experiment with COLO 205 colon, 1.7 µM; in the experiment on MALME-3M melanoma it was 1.47 µM; in the experiment with KM12 colon, 2.93 µM. Also, the GI50 with OVCAR-8 ovarian was 2.51 µM. Further, the TGI in the experiment with OVCAR-3 ovarian came to 6.16 µM; in the experiment on HCT-15 colon, 8.26 µM; in the experiment on T-47D breast it was 5 µM; in the experiment on COLO 205 colon it was 3.63 µM; in the experiment with MALME-3M melanoma, 2.85 µM; in the experiment on KM12 colon, 13.4 µM. The TGI in the experiment with OVCAR-8 ovarian turned out to be 7.24 µM.

Regarding `O=C(/C=C/c1ccc(O)c(O)c1)N1CCN(c2ccc(Cl)cc2)CC1`, the GI50 was 3.83 µM in the experiment with HCT-15 colon; 5.57 µM in the experiment with T-47D breast; 5.11 µM in the experiment with COLO 205 colon; 11.1 µM in the experiment with MALME-3M melanoma; 7.65 µM in the experiment on KM12 colon; 5.46 µM with OVCAR-8 ovarian. Besides, the TGI in the experiment on HCT-15 colon was 29.2 µM; in the experiment on T-47D breast it was 77 µM; in the experiment with COLO 205 colon, 19.7 µM; in the experiment with MALME-3M melanoma, 57.5 µM; with KM12 colon it was 26.6 µM; in the experiment on OVCAR-8 ovarian, 44.4 µM.

Turning to `CCCN1C(=O)/C(=C/c2ccc(SC(F)(F)F)cc2)SC1=Nc1ccc(OC)cc1`, the GI50 was 13.5 µM with OVCAR-3 ovarian; 2.65 µM in the experiment with HCT-15 colon; more than 50 µM in the experiment with HL-60(TB) leukemia; more than 50 µM with COLO 205 colon; 19.7 µM with KM12 colon; 7.42 µM in the experiment on OVCAR-8 ovarian. Further, the TGI in the experiment on OVCAR-3 ovarian is 31.1 µM; in the experiment with HCT-15 colon, 36.9 µM; in the experiment on HL-60(TB) leukemia it was more than 50 µM; with COLO 205 colon, more than 50 µM; with KM12 colon, more than 50 µM; with OVCAR-8 ovarian, 20.7 µM.

`CC(C)(O)C1COC2=C1C(=O)c1ccccc1C2=O` (stereo not drawn): the TGI in the experiment with OVCAR-3 ovarian is 57.8 µM; with HCT-15 colon it was more than 100 µM; in the experiment with HL-60(TB) leukemia it was 44.9 µM; with T-47D breast it was more than 100 µM; with COLO 205 colon, more than 100 µM; with KM12 colon it was more than 100 µM. This molecule also registered a TGI in the experiment with OVCAR-8 ovarian of 84.6 µM.

Take `COc1cc(C2CC(c3ccccc3)=NN2C=O)ccc1Oc1ccnc2cc(Cl)ccc12` (stereo not drawn): the GI50 in the experiment on OVCAR-3 ovarian was 18.6 µM; with HCT-15 colon, more than 100 µM; in the experiment with T-47D breast, 10.3 µM; in the experiment on COLO 205 colon, more than 100 µM; in the experiment with KM12 colon, more than 100 µM; in the experiment with OVCAR-8 ovarian, 4.91 µM. The TGI with OVCAR-3 ovarian was more than 100 µM; with HCT-15 colon it was more than 100 µM; with T-47D breast it was 39.7 µM; with COLO 205 colon it was more than 100 µM; with KM12 colon it was more than 100 µM; with OVCAR-8 ovarian, more than 100 µM.

For `O=C1C(Cl)=C(Nc2ccc(S(=O)(=O)c3ccc(NC4=C(Cl)C(=O)c5ccccc5C4=O)cc3)cc2)C(=O)c2ccccc21`, the GI50 in the experiment on HL-60(TB) leukemia is 3.24 µM; with COLO 205 colon, 1.74 µM; with MALME-3M melanoma, 2.13 µM; in the experiment with KM12 colon it was 2.17 µM. Further, the TGI in the experiment on HL-60(TB) leukemia stood at 8.62 µM; with COLO 205 colon, 3.22 µM; in the experiment on MALME-3M melanoma, 3.88 µM; with KM12 colon, 5.38 µM.

For `COc1cc2c(c(OC)c1OC)-c1cc(I)c(O)cc1[C@@H](NC(C)=O)CC2`, the GI50 with OVCAR-3 ovarian was 0.0258 µM; in the experiment with HCT-15 colon it was 0.118 µM; in the experiment on HL-60(TB) leukemia, 0.0254 µM; in the experiment with COLO 205 colon it was 0.0385 µM; in the experiment with MALME-3M melanoma, more than 100 µM; in the experiment with KM12 colon, 0.0432 µM. Moreover, in the experiment on OVCAR-8 ovarian, the GI50 was 0.187 µM. Besides, the TGI was 0.0623 µM in the experiment on OVCAR-3 ovarian; more than 100 µM in the experiment on HCT-15 colon; 0.069 µM with HL-60(TB) leukemia; 0.155 µM in the experiment on COLO 205 colon; more than 100 µM in the experiment on MALME-3M melanoma; 1.36 µM with KM12 colon. Also, the TGI in the experiment on OVCAR-8 ovarian is more than 100 µM.

As for `CCc1ccc2c(c1)C(=O)c1c-2n(CCCN)c(=O)c2cc(OC)c(OC)cc12`, the GI50 in the experiment with OVCAR-3 ovarian is 1.51 µM; in the experiment with HCT-15 colon, 1.59 µM; with HL-60(TB) leukemia, 1.37 µM; in the experiment on MALME-3M melanoma it was 0.5 µM; in the experiment with KM12 colon, 1.41 µM. Moreover, the TGI in the experiment on OVCAR-3 ovarian came out at 2.89 µM; in the experiment with HCT-15 colon it was 3.01 µM; in the experiment with HL-60(TB) leukemia, 3.47 µM; in the experiment on MALME-3M melanoma, 2.1 µM; with KM12 colon, 3.15 µM.

`Clc1ccc(C=Nc2ccc(-c3nc4ccccc4[nH]3)cc2)cc1`: the GI50 was more than 100 µM in the experiment on OVCAR-3 ovarian; more than 100 µM in the experiment on HCT-15 colon; 55.1 µM in the experiment with T-47D breast; more than 100 µM in the experiment with COLO 205 colon; more than 100 µM in the experiment on MALME-3M melanoma; more than 100 µM with KM12 colon. The GI50 with OVCAR-8 ovarian is more than 100 µM. In addition, the TGI in the experiment on OVCAR-3 ovarian, in the experiment on HCT-15 colon, with T-47D breast, with COLO 205 colon, with MALME-3M melanoma and in the experiment on KM12 colon was more than 100 µM throughout. This molecule also came in with a TGI with OVCAR-8 ovarian of more than 100 µM.

For `Cc1cc(N2CCC(N3CCCC3)CC2)nc(/N=C(\N)Nc2ccc(Cl)c(Cl)c2)n1`, the GI50 is 1.72 µM in the experiment with OVCAR-3 ovarian; 1.64 µM in the experiment with HCT-15 colon; 1.92 µM in the experiment on T-47D breast; 1.7 µM with COLO 205 colon; 2 µM with MALME-3M melanoma; 1.72 µM in the experiment with KM12 colon. The GI50 in the experiment with OVCAR-8 ovarian is 1.91 µM. The TGI in the experiment with OVCAR-3 ovarian is 3.26 µM; in the experiment with HCT-15 colon it was 3.64 µM; in the experiment with T-47D breast it was 3.59 µM; in the experiment on COLO 205 colon, 3.26 µM; with MALME-3M melanoma it was 3.82 µM; in the experiment on KM12 colon it was 3.64 µM. Also, the TGI in the experiment on OVCAR-8 ovarian was 3.77 µM.

For `COc1cccc(/C=C2\N=C(c3ccccc3)OC2=O)c1`, the TGI with OVCAR-3 ovarian was more than 100 µM; in the experiment with HCT-15 colon, more than 100 µM; in the experiment on HL-60(TB) leukemia, 26 µM; in the experiment on T-47D breast, more than 100 µM; in the experiment on COLO 205 colon, more than 100 µM; in the experiment on KM12 colon, more than 100 µM. The TGI with OVCAR-8 ovarian is more than 100 µM.

For `[O]=[Sn]([CH]1CCCCC1)[CH]1CCCCC1`, the GI50 was 0.203 µM in the experiment on OVCAR-3 ovarian; 0.197 µM with HCT-15 colon; 0.248 µM in the experiment on HL-60(TB) leukemia; 0.249 µM in the experiment with COLO 205 colon; 0.173 µM with MALME-3M melanoma; 0.341 µM with KM12 colon. For the same molecule, the GI50 in the experiment with OVCAR-8 ovarian is 0.298 µM. In addition, the TGI in the experiment on OVCAR-3 ovarian stood at 0.549 µM; in the experiment with HCT-15 colon, 0.691 µM; with HL-60(TB) leukemia it was 1.55 µM; in the experiment on COLO 205 colon it was 0.731 µM; in the experiment with MALME-3M melanoma, 0.555 µM; with KM12 colon, 1.25 µM. The TGI in the experiment on OVCAR-8 ovarian was determined as 1.17 µM.

(Values after PubChem BioAssay (NCI).)
